Data taken from patent US8987314B2, “Amide, urea or sulfone amide linked benzothiazole inhibitors of endothelial lipase” (Bristol-Myers Squibb Company, priority 2012, dated 2015).

What was measured:
Endothelial lipase (EL) = Endothelial lipase (EL) (Homo sapiens (Human), UniProt Q9Y5X9); assay: EL assay: endothelial lipase activity with fluorescent substrate A10070 in DMPG vesicles; type: biochemical
In short: (§1)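 Compounds were preincubated with enzyme for 30 min at 37° C before FRET-substrate vesicles (A10070 in DMPG, 0.11 mole fraction) were added. Reaction rates were obtained from the 300–900 sec slope of fluorescence at 490/530 nm.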

hepatic lipase (HL) = hepatic lipase (HL) (Homo sapiens (Human), UniProt P11150); assay: HL assay: hepatic lipase activity with fluorescent substrate A10070 in DMPG vesicles; type: biochemical
Chain of hepatic lipase (HL) (P11150 23-499, species assumed): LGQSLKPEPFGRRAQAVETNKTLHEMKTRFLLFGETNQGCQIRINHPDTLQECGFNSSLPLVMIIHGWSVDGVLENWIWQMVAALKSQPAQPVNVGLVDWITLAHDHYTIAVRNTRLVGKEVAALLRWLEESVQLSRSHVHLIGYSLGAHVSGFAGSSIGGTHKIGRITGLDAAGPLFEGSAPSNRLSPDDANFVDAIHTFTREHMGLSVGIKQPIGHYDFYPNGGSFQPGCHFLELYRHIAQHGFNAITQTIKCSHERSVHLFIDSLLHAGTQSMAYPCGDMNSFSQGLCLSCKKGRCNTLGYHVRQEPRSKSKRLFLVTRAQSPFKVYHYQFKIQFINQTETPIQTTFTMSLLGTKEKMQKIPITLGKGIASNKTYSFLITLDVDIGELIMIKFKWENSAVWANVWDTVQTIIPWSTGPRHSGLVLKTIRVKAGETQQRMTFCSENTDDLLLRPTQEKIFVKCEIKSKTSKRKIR
In short: as §1

Chain of Endothelial lipase (EL) (Q9Y5X9 21-500): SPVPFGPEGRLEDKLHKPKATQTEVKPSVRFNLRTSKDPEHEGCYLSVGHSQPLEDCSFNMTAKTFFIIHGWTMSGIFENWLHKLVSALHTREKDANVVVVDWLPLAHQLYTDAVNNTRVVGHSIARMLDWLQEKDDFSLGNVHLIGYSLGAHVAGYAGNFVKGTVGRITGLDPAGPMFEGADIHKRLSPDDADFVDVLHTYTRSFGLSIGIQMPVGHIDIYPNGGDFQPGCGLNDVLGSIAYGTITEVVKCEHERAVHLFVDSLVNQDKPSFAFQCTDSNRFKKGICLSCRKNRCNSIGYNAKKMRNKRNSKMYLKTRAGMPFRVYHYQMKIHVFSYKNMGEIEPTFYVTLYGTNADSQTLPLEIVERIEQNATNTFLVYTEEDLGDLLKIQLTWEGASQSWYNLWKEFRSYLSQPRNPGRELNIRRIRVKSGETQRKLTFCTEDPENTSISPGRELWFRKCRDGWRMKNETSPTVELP

| Compound | IC50 (Endothelial lipase (EL)) | IC50 (hepatic lipase (HL)) |
| --- | --- | --- |
| CS(=O)(=O)C(C(=O)NCCS(N)(=O)=O)c1nc2ccc(-c3ccc(C(=O)N4CC[C@H](O)C4)cc3)cc2s1 (stereo partly drawn) [Example B328, 2-(6-{4-[(3S)-3-hydroxypyrrolidine-1-carbonyl]phen-yl}-1,3-benzothiazol-2-yl)-2-methanesulfonyl-N-(2-sulfamoylethyl)a-cetamide] | 0.004 µM | 2.62 µM |
| CS(=O)(=O)C(C(=O)NCCS(N)(=O)=O)c1nc2ccc(-c3ccc(C(=O)N4CC[C@@H](O)C4)cc3)cc2s1 (stereo partly drawn) [Example B329, 2-(6-{4-[(3R)-3-hydroxy-pyrrolidine-1-carbonyl]phen-yl}-1,3-benzothiazol-2-yl)-2-methanesulfonyl-N-(2-sulfamoylethyl)a-cetamide] | 0.0018 µM | 0.262 µM |
| CS(=O)(=O)C(C(=O)NCCS(N)(=O)=O)c1nc2ccc(-c3ccc(C(=O)N4CC(F)C4)cc3)cc2s1 (centres unmarked) [Example B330, 2-{6-[4-(3-fluoroazetidine-1-carbonyl)phenyl]-1,3-benzothiazol-2-yl}-2-methanesulfonyl-N-(2-sulfamoylethyl)acetamide] | 0.0007 µM | 0.0467 µM |
| NC(=O)c1cccc(-c2ccc3nc(C(C(=O)NCCS(N)(=O)=O)S(=O)(=O)CCC(F)(F)F)sc3c2)c1 (centres unmarked) [Example B331, 3-(2-{[(2-sulfamoylethyl)car-bamoyl](3,3,3-trifluoro-propanesulfonyl)methyl}-1,3-benzothiazol-6-yl)benzamide] | 0.0725 µM | 0.214 µM |
| NS(=O)(=O)CCNC(=O)C(c1nc2ccc(-c3cccc(C(=O)N4CCC(O)CC4)c3)cc2s1)S(=O)(=O)CCC(F)(F)F (centres unmarked) [Example B332, 2-{6-[3-(4-hydroxy-piperidine-1-carbonyl)phen-yl]-1,3-benzothiazol-2-yl}-N-(2-sulfamoyl-ethyl)-2-(3,3,3-trifluoro-propanesulfonyl)acetamide] | 0.0015 µM | 0.137 µM |
| NS(=O)(=O)CCNC(=O)C(c1nc2ccc(-c3cccc(C(=O)N4CCOCC4)c3)cc2s1)S(=O)(=O)CCC(F)(F)F (centres unmarked) [Example B333, 2-{6-[3-(morpholine-4-carbonyl)phenyl]-1,3-benzothiazol-2-yl}-N-(2-sulfamoylethyl)-2-(3,3,3-trifluoropropanesulfon-yl)acetamide] | 0.0098 µM | 0.119 µM |
| NS(=O)(=O)CCNC(=O)C(c1nc2ccc(-c3cccc(C(=O)N4CC(F)(F)C4)c3)cc2s1)S(=O)(=O)CCC(F)(F)F (centres unmarked) [Example B334, 2-{6-[3-(3,3-difluoro-azetidine-1-carbonyl)phen-yl]-1,3-benzothiazol-2-yl}-N-(2-sulfamoyl-ethyl)-2-(3,3,3-trifluoro-propanesulfonyl)acetamide] | 0.0142 µM | 0.0604 µM |
| NS(=O)(=O)CCNC(=O)C(c1nc2ccc(-c3cccc(C(=O)N4CCCC(F)(F)C4)c3)cc2s1)S(=O)(=O)CCC(F)(F)F (centres unmarked) [Example B335, 2-{6-[3-(3,3-difluoro-piperidine-1-carbonyl)phen-yl]-1,3-benzothiazol-2-yl}-N-(2-sulfamoyl-ethyl)-2-(3,3,3-trifluoro-propanesulfonyl)acetamide] | 0.0055 µM | 0.0147 µM |
| NS(=O)(=O)CCNC(=O)C(c1nc2ccc(-c3cccc(C(=O)N4CC(F)C4)c3)cc2s1)S(=O)(=O)CCC(F)(F)F (centres unmarked) [Example B336, 2-{6-[3-(3-fluoroazetidine-1-carbonyl)phenyl]-1,3-benzothiazol-2-yl}-N-(2-sulfamoylethyl)-2-(3,3,3-trifluoropropanesulfonyl)a-cetamide] | 0.0082 µM | 0.0226 µM |

Next, values leading:

| IC50 (Endothelial lipase (EL)) | IC50 (hepatic lipase (HL)) | Compound |
| --- | --- | --- |
| 0.0068 µM | 0.0284 µM | NS(=O)(=O)CCNC(=O)C(c1nc2ccc(-c3cccc(C(=O)NC4CCC4)c3)cc2s1)S(=O)(=O)CCC(F)(F)F (centres unmarked) [Example B337, N-cyclobutyl-3-(2-{[(2-sulfamoylethyl)carba-moyl](3,3,3-trifluoropropane-sulfonyl)methyl}-1,3-benzothiazol-6-yl)benzamide] |
| 0.0269 µM | 0.0997 µM | CN(CC(F)F)C(=O)c1cccc(-c2ccc3nc(C(C(=O)NCCS(N)(=O)=O)S(=O)(=O)CCC(F)(F)F)sc3c2)c1 (centres unmarked) [Example B338, N-(2,2-difluoroethyl)-N-methyl-3-(2-{[(2-sulfamoylethyl)carba-moyl](3,3,3-trifluoropro-panesulfonyl)methyl}-1,3-benzothiazol-6-yl)benzamide] |
| 0.0097 µM | 0.0492 µM | CC(F)(F)CNC(=O)c1cccc(-c2ccc3nc(C(C(=O)NCCS(N)(=O)=O)S(=O)(=O)CCC(F)(F)F)sc3c2)c1 (centres unmarked) [Example B339, N-(2,2-difluoropropyl)-3-(2-{[(2-sulfamoylethyl)car-bamoyl](3,3,3-trifluoropropanesulfon-yl)methyl}-1,3-benzothiazol-6-yl)benzamide] |
| 0.0146 µM | 0.0795 µM | CN(C)C(=O)c1cccc(-c2ccc3nc(C(C(=O)NCCS(N)(=O)=O)S(=O)(=O)CCC(F)(F)F)sc3c2)c1 (centres unmarked) [Example B340, N,N-dimethyl-3-(2-{[(2-sulfamoylethyl)carba-moyl](3,3,3-trifluoropro-panesulfonyl)methyl}-1,3-benzothiazol-6-yl)benzamide] |
| 0.006 µM | 0.112 µM | CC1(O)CCN(C(=O)c2cccc(-c3ccc4nc(C(C(=O)NCCS(N)(=O)=O)S(=O)(=O)CCC(F)(F)F)sc4c3)c2)CC1 (centres unmarked) [Example B341, 2-{6-[3-(4-hydroxy-4-methylpiperidine-1-carbonyl)phenyl]-1,3-benzothiazol-2-yl}-N-(2-sulfamoylethyl)-2-(3,3,3-trifluoropropanesulfon-yl)acetamide] |
| 0.0095 µM | 0.154 µM | NS(=O)(=O)CCNC(=O)C(c1nc2ccc(-c3cccc(C(=O)N4CC[C@@H](O)C4)c3)cc2s1)S(=O)(=O)CCC(F)(F)F (stereo partly drawn) [Example B342, 2-(6-{3-[(3R)-3-hydroxy-pyrrolidine-1-carbon-yl]phenyl}-1,3-benzothiazol-2-yl)-N-(2-sulfamoyl-ethyl)-2-(3,3,3-trifluoro-propanesulfonyl)acetamide] |
| 0.0135 µM | 0.0381 µM | NS(=O)(=O)CCNC(=O)C(c1nc2ccc(-c3cccc(C(=O)N4CCC(F)(F)CC4)c3)cc2s1)S(=O)(=O)CCC(F)(F)F (centres unmarked) [Example B343, 2-{6-[3-(4,4-difluoro-piperidine-1-carbon-yl)phenyl]-1,3-benzothiazol-2-yl}-N-(2-sulfamoyl-ethyl)-2-(3,3,3-trifluoro-propanesulfonyl)acetamide] |
| 0.0131 µM | 0.0222 µM | NS(=O)(=O)CCNC(=O)C(c1nc2ccc(-c3cccc(C(=O)N4CC[C@H](O)C4)c3)cc2s1)S(=O)(=O)CCC(F)(F)F (some centres unmarked) [Example B344] |
| 0.001 µM | 0.213 µM | CC(C)(O)CNC(=O)c1cccc(-c2ccc3nc(C(C(=O)NCCS(N)(=O)=O)S(=O)(=O)CCC(F)(F)F)sc3c2)c1 (centres unmarked) [Example B345, N-(2-hydroxy-2-methyl-propyl)-3-(2-{[(2-sulfamoylethyl)carba-moyl](3,3,3-tnfluoropro-panesulfonyl)methyl}-1,3-benzothiazol-6-yl)benzamide] |
| 0.0053 µM | 0.4 µM | Cc1cc2nc(C(C(=O)NCCS(N)(=O)=O)S(=O)(=O)Cc3ccccc3)sc2cc1-c1ccc(C(=O)N2CCOCC2)cc1 (centres unmarked) [Example B346, 2-{5-methyl-6-[4-(morpholine-4-carbon-yl)phenyl]-1,3-benzothiazol-2-yl}-2-phenylmethane-sulfonyl-N-(2-sulfamoylethyl)acetamide] |
